Experimental data: US9227977B2, “Phosphoinositide 3-kinase inhibitors” (RESPIVERT LTD., priority 2013, dated 2016)

Target: PI3K δ (Homo sapiens (Human), UniProt O00329)
Assay: PI3K δ cell based assay: H2O2-induced Akt phosphorylation in d-U937 cells
Details: inhibition of induced Akt phosphorylation, H2O2 stimulus; read-out: REC50 values in d-U937 cells, H2O2 stimulus
Method: As a means of assessing PI3K δ activation in response to stimuli, the phosphorylation status of the protein, Akt, a downstream product of PI3Kδ, signaling was determined.
U937 cells, obtained from a human, leukemic, monocyte lymphoma cell line, were differentiated to macrophage-type cells by incubation with PMA (100 ng/mL) for 48 to 72 hr. Cells were then pre-incubated with either the test compound or vehicle for 2 hr and were then stimulated briefly by exposure to H2O2 (10 mM, 5-7 min) and the reaction stopped by replacing the media with 4% formaldehyde solution. […] After washing with buffer (PBS containing 0.1% Triton X-100), cells were incubated with an HRP-conjugated secondary antibody (Dako) and the resultant signal was determined colorimetrically (OD: 450 nm with a reference wavelength of 655 nm) using TMB substrate (substrate reagent pack supplied by R&D Systems, Inc.).
This reaction was stopped by the addition of H2SO4 solution (100 μL). […] After washing with buffer (PBS containing 0.1% Triton X-100) 1% SDS (100 μL) was added to each well and the plates were shaken lightly for 1 hr prior to measuring the absorbance at 595 nm (Varioskan® Flash, Thermo-Fisher Scientific). The measured OD450-655 readings were corrected for cell number by dividing the OD450-655 by the OD595 readings. The ratio of pAkt signal to total Akt signal was used to quantitate the extent of PI3K δ activation. […]

Sequence of PI3K δ (O00329 whole entry): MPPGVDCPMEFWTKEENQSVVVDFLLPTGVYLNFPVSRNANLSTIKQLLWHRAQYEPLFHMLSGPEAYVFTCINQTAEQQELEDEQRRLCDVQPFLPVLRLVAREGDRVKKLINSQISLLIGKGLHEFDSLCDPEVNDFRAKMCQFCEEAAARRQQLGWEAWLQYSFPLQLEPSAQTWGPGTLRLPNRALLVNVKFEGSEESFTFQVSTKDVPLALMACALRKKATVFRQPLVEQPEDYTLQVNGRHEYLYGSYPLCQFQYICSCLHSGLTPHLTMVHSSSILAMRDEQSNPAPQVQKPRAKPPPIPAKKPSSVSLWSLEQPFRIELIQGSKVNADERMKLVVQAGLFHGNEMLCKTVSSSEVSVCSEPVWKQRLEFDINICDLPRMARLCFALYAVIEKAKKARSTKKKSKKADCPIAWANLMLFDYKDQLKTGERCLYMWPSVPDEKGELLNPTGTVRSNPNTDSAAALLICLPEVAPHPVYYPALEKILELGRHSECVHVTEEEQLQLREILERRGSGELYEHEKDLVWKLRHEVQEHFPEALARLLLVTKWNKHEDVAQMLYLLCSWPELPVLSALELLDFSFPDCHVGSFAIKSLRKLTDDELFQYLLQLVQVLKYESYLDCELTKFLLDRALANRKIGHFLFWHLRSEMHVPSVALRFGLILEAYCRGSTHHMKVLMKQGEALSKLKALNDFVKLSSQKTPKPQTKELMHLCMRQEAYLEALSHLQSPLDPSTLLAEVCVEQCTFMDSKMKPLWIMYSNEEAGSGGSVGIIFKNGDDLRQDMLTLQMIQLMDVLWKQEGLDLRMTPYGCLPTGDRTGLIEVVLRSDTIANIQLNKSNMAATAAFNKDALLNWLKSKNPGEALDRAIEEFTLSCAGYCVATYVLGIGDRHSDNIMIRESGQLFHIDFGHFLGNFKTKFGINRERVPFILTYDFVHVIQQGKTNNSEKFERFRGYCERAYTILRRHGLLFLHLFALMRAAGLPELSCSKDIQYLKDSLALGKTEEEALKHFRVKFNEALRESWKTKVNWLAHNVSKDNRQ
Sequence of PI3K δ (P27986 whole entry partner): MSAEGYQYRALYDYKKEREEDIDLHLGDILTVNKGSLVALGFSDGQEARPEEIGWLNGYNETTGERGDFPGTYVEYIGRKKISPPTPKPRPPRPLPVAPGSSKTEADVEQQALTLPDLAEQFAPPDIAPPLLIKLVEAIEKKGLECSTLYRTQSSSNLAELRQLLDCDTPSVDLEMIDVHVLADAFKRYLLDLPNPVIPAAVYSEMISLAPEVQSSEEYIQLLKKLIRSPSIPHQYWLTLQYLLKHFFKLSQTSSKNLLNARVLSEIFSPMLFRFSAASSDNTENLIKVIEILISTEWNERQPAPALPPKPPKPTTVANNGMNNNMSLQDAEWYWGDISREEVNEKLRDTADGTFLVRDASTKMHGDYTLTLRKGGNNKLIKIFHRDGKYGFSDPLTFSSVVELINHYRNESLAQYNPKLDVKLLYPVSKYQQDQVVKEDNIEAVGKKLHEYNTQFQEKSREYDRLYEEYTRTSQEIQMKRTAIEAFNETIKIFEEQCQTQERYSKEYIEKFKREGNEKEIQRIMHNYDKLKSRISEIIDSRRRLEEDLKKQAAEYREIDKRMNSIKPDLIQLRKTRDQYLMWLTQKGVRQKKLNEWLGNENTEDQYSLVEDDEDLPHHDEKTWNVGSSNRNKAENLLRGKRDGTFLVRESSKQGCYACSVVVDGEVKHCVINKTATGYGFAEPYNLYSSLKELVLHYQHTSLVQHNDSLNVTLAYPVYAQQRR

COCCOCCOCC#Cc1cccc2nc(Cn3nc(-c4cc(O)cc(F)c4)c4c(N)ncnc43)n(Cc3ccccc3C(F)(F)F)c(=O)c12 [Compound (I), 2-((4-Amino-3-(3-fluoro-5-hydroxyphenyl)-1H-pyrazolo[3,4-d]pyrimidin-1-yl)methyl)-5-(3-(2-(2-methoxyethoxy)ethoxy)prop-1-yn-1-yl)-3-(2-(trifluoromethyl)benzyl)quinazolin-4(3H)-one]
EC50: 7.4 nM
